Starred links: 1 amine or outer side, 2 acyl side, 3 side chain; linkers in the order of their positions; H or OH if unused. Non-standard residues stand in square brackets, D forms with d. *: point of attachment. cholesteryl‑oxycarbonylmethyl = CC(C)CCC[C@@H](C)[C@H]1CC[C@H]2[C@@H]3CC=C4C[C@@H](OC(=O)C*)CC[C@]4(C)[C@H]3CC[C@]12C; C(Bzl) = O=C([C@H](CSCc1ccccc1)N[*:1])[*:2]; tBuAla = CC(C)(C)C[C@H](N)C(=O)O; Suc = O=C(CCC(=O)[*:2])[*:1]; Isovaleryl = CC(C)CC(=O)*; hCys = N[C@@H](CCS)C(=O)O; Pentanoyl = CCCCC(=O)*
Assays:
[1] = tested on: HIV wild type virus strain IIIB; assay: Standard Anti-Viral-Experiment (AVE), HIV-1 replication assay in MT4-LTR-EGFP cells, wild type IIIB; type: cell-based; details: 3 days, EGFP signal
Outline: (§1)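 MT4-LTR-EGFP cells infected with HIV-1 IIIB, HXB2D or HXB2D gp41 mutants V38A/Q40H alongside serial 4-fold compound dilutions, 3 days at 37° C. EGFP read by laser-scanning microscopy; EC50 by linear interpolation against log concentration. Mutant results given as fold change in EC50 versus wild-type HXB2D.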

[2] = tested on: HIV mutant virus strain HXB2D with mutation V38A in the gp41 gene; assay: Standard AVE, HXB2D site directed mutant V38A; type: cell-based, HIV-1; details: fold change vs wild type strain HXB2D
Text: • Standard Anti-Viral-Experiment “AVE” (wild type HIV strain IIIB+HIV strain HXB2D side directed mutants V38A and Q40H)
The HIV-1 replication assay measures virus replication (HIV wild type virus strain 111B or HXB2D, or a HIV mutant virus strain HXB2D with mutation V38A or Q40H in the gp41 gene) as an induction of enhanced green fluorescent protein (EGFP) expression. The indicator MT4-LTR-EGFP cells contain an EGFP gene under the control of the HIV-1 LTR promoter sequence. Successful HIV-1 infection results in viral Tat protein expression and subsequent induction of EGFP expression. Compounds/peptides inhibiting HIV-1 infection are expected to reduce EGFP expression as compared to the untreated HIV-infected control.
Serial 4-fold dilutions of test compounds/peptides were mixed with HIV-1 (IIIB, HXB2D, or a HXB2D mutant virus (V38A or Q40H)) and MT4-LTR-EGFP cells and incubated at 37° C. After 3 days, the wells were examined for EGFP expression using an argon laser-scanning microscope. The effective compound/peptide concentration inhibiting 50% of the virus-induced EGFP signal (EC50) was determined by linear interpolation of the EGFP signal vs. logarithm of the compound concentration; (T20, C34 and Sifuvirtide were added as reference compounds). For the V38A and Q40H mutant viruses, results were reported as a fold change in EC50, as compared with a drug-susceptible wild type strain HXB2D, which forms the backbone of the mutant virus. • Standard AVE (50% Human Serum)

HIV-IIIB + 50% HS = assay: Standard AVE (50% Human Serum), HIV-1 replication assay in MT4-LTR-EGFP cells; type: cell-based; details: fold change vs EC50 in the assay without human serum
Outline: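 MT4-LTR-EGFP cells infected with HIV-1 alongside 4-fold serial compound dilutions in 50% human serum, 3 days at 37 °C. EGFP read by laser-scanning microscopy; EC50 by linear interpolation against log concentration, reported as fold change versus EC50 without serum.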

[3] = tested on: HIV mutant virus strain HXB2D with mutation Q40H in the gp41 gene; assay: Standard AVE, HXB2D site directed mutant Q40H; type: cell-based, HIV-1; details: fold change vs wild type strain HXB2D
Outline: as §1

Substance	EC50 [1] [nM]	HIV-HXB2D V38A mutant (fold change in EC50) [2]	HIV-IIIB + 50% HS (Fold change in EC50) (HIV-IIIB + 50% HS)	HIV-HXB2D Q40H mutant (fold change in EC50) [3]
Isovaleryl-E-C(Bzl)-YLALIEELIRKAQEQQEKNEAALR-NH2 ({Isovaleryl-Glu-C(Bzl)}-YLALIEELIRKAQEQQEKNEAALR-NH2; SMILES CC[C@H](C)[C@H](NC(=O)[C@H](CC(C)C)NC(=O)[C@H](C)NC(=O)[C@H](CC(C)C)NC(=O)[C@H](Cc1ccc(O)cc1)NC(=O)[C@H](CSCc1ccccc1)NC(=O)[C@H](CCC(=O)O)NC(=O)CC(C)C)C(=O)N[C@@H](CCC(=O)O)C(=O)N[C@@H](CCC(=O)O)C(=O)N[C@@H](CC(C)C)C(=O)N[C@H](C(=O)N[C@@H](CCCNC(=N)N)C(=O)N[C@@H](CCCCN)C(=O)N[C@@H](C)C(=O)N[C@@H](CCC(N)=O)C(=O)N[C@@H](CCC(=O)O)C(=O)N[C@@H](CCC(N)=O)C(=O)N[C@@H](CCC(N)=O)C(=O)N[C@@H](CCC(=O)O)C(=O)N[C@@H](CCCCN)C(=O)N[C@@H](CC(N)=O)C(=O)N[C@@H](CCC(=O)O)C(=O)N[C@@H](C)C(=O)N[C@@H](C)C(=O)N[C@@H](CC(C)C)C(=O)N[C@@H](CCCNC(=N)N)C(N)=O)[C@@H](C)CC) [Peptide 18]	1	3	3	53
Ac-ACYAACIEALIRAAQEQQEKNEAALRGSGC(cholesteryl-oxycarbonylmethyl)-NH2 [87] (Ac-ACYAACIEALIRAAQEQQEKNEAALRGSGC(cholesteryl‑oxycarbonylmethyl)-NH2; cysteine pairing not given here) [Peptide 87]	0.1	1	14	5
Suc-ACY-Nva-ACIEALIRAAQEQQEKNEAALR-NH2 [Peptide 44]	2	15	1	160
Suc-ACYLAC)EELIRKAQEQQEKNEAALR-NH2 [Peptide 31]	1	14	0.4	238
Ac-ACY-Tba-ACIEALIRAAQEQQEKNEAALR-NH2 [Peptide 60]	5	18	3	
Ac-A[hCys]YAA[hCys]IEALIRAAQEQQEKNEAALR-NH2 (cysteine pairing not given here) [Peptide 78]	5	61	3	355
Suc-Hcy-YLA-Hcy-IEALIRAAREQQEKNEALLR-NH2 (Suc-[hCys]YLA[hCys]IEALIRAAREQQEKNEALLR-NH2; also: cyclised, bridge not given here) [Peptide 28]	0.6	4	4	25
Suc-CYLACIEELIRKAQEQQEKNEAAL-Tba-NH2 [27] (Suc-CYLACIEELIRKAQEQQEKNEAAL[tBuAla]-NH2; cysteine pairing not given here) [Peptide 27]	3	28	0.7	307
Ac-A-C(Bzl)-YAALIEALIRAAQEQQEKNEAALR-NH2 ({Ac-Ala-C(Bzl)}-YAALIEALIRAAQEQQEKNEAALR-NH2; SMILES CC[C@H](C)[C@H](NC(=O)[C@H](CC(C)C)NC(=O)[C@H](C)NC(=O)[C@H](CCC(=O)O)NC(=O)[C@@H](NC(=O)[C@H](CC(C)C)NC(=O)[C@H](C)NC(=O)[C@H](C)NC(=O)[C@H](Cc1ccc(O)cc1)NC(=O)[C@H](CSCc1ccccc1)NC(=O)[C@H](C)NC(C)=O)[C@@H](C)CC)C(=O)N[C@@H](CCCNC(=N)N)C(=O)N[C@@H](C)C(=O)N[C@@H](C)C(=O)N[C@@H](CCC(N)=O)C(=O)N[C@@H](CCC(=O)O)C(=O)N[C@@H](CCC(N)=O)C(=O)N[C@@H](CCC(N)=O)C(=O)N[C@@H](CCC(=O)O)C(=O)N[C@@H](CCCCN)C(=O)N[C@@H](CC(N)=O)C(=O)N[C@@H](CCC(=O)O)C(=O)N[C@@H](C)C(=O)N[C@@H](C)C(=O)N[C@@H](CC(C)C)C(=O)N[C@@H](CCCNC(=N)N)C(N)=O) [Peptide 4]	10	74	2	
Pentanoyl-ANYAALIEALIRAAQEQQEKNEAALR-NH2 (SMILES CCCCC(=O)N[C@@H](C)C(=O)N[C@@H](CC(N)=O)C(=O)N[C@@H](Cc1ccc(O)cc1)C(=O)N[C@@H](C)C(=O)N[C@@H](C)C(=O)N[C@@H](CC(C)C)C(=O)N[C@H](C(=O)N[C@@H](CCC(=O)O)C(=O)N[C@@H](C)C(=O)N[C@@H](CC(C)C)C(=O)N[C@H](C(=O)N[C@@H](CCCNC(=N)N)C(=O)N[C@@H](C)C(=O)N[C@@H](C)C(=O)N[C@@H](CCC(N)=O)C(=O)N[C@@H](CCC(=O)O)C(=O)N[C@@H](CCC(N)=O)C(=O)N[C@@H](CCC(N)=O)C(=O)N[C@@H](CCC(=O)O)C(=O)N[C@@H](CCCCN)C(=O)N[C@@H](CC(N)=O)C(=O)N[C@@H](CCC(=O)O)C(=O)N[C@@H](C)C(=O)N[C@@H](C)C(=O)N[C@@H](CC(C)C)C(=O)N[C@@H](CCCNC(=N)N)C(N)=O)[C@@H](C)CC)[C@@H](C)CC) [Peptide 14]	13		2	>67
Suc-ECYLRCIEELIRKAQEQQEKNEAALR-NH2 (cysteine pairing not given here) [Peptide 29]	0.8		0.6	98
Suc-ACY-Abu-ACIEALIRAAQEQQEKNEAALR-NH2 [Peptide 49]	6	33	0.6	
Isovaleryl-ANYAALIEALIRAAQEQQEKNEAALR-NH2 (SMILES CC[C@H](C)[C@H](NC(=O)[C@H](CC(C)C)NC(=O)[C@H](C)NC(=O)[C@H](CCC(=O)O)NC(=O)[C@@H](NC(=O)[C@H](CC(C)C)NC(=O)[C@H](C)NC(=O)[C@H](C)NC(=O)[C@H](Cc1ccc(O)cc1)NC(=O)[C@H](CC(N)=O)NC(=O)[C@H](C)NC(=O)CC(C)C)[C@@H](C)CC)C(=O)N[C@@H](CCCNC(=N)N)C(=O)N[C@@H](C)C(=O)N[C@@H](C)C(=O)N[C@@H](CCC(N)=O)C(=O)N[C@@H](CCC(=O)O)C(=O)N[C@@H](CCC(N)=O)C(=O)N[C@@H](CCC(N)=O)C(=O)N[C@@H](CCC(=O)O)C(=O)N[C@@H](CCCCN)C(=O)N[C@@H](CC(N)=O)C(=O)N[C@@H](CCC(=O)O)C(=O)N[C@@H](C)C(=O)N[C@@H](C)C(=O)N[C@@H](CC(C)C)C(=O)N[C@@H](CCCNC(=N)N)C(N)=O) [Peptide 17]	24		0.9	>37
Ac-ACYLACIEALIRKAQEQQEKNEAALR-NH2 [Peptide 48]	3		1	62
SUC-ACYLACIDELIAKAQEQQEKNEAALR-NH2 (Suc-ACYLACIDELIAKAQEQQEKNEAALR-NH2; cysteine pairing not given here) [Peptide 36]	2		0.4	373
SUC-ACYLACIDELIKKAQEQQEKNEAALR-NH2 (Suc-ACYLACIDELIKKAQEQQEKNEAALR-NH2; cysteine pairing not given here) [Peptide 30]	1		0.5	145
Suc-ANYLALIEALIRAAQEQQEKNEAALR-NH2 (SMILES CC[C@H](C)[C@H](NC(=O)[C@H](CC(C)C)NC(=O)[C@H](C)NC(=O)[C@H](CCC(=O)O)NC(=O)[C@@H](NC(=O)[C@H](CC(C)C)NC(=O)[C@H](C)NC(=O)[C@H](CC(C)C)NC(=O)[C@H](Cc1ccc(O)cc1)NC(=O)[C@H](CC(N)=O)NC(=O)[C@H](C)NC(=O)CCC(=O)O)[C@@H](C)CC)C(=O)N[C@@H](CCCNC(=N)N)C(=O)N[C@@H](C)C(=O)N[C@@H](C)C(=O)N[C@@H](CCC(N)=O)C(=O)N[C@@H](CCC(=O)O)C(=O)N[C@@H](CCC(N)=O)C(=O)N[C@@H](CCC(N)=O)C(=O)N[C@@H](CCC(=O)O)C(=O)N[C@@H](CCCCN)C(=O)N[C@@H](CC(N)=O)C(=O)N[C@@H](CCC(=O)O)C(=O)N[C@@H](C)C(=O)N[C@@H](C)C(=O)N[C@@H](CC(C)C)C(=O)N[C@@H](CCCNC(=N)N)C(N)=O) [Peptide 7]	2		0.6	764
